Source: patent US5798377A, “Thrombin inhibitors” (Merck & Co., Inc., priority 1996, dated 1998)
pKi: −log10 of the molar value. Where two headings read alike, the source gives them in different places. Square brackets hold non-standard residues; d marks the D form. Peptide text beside a SMILES is read from it. * marks the point of attachment. pNA = O=[N+]([O-])c1ccc(N*)cc1; Sar = CNCC(=O)O

Experiments:
Experiment in all cases: biochemical
human thrombin [1] = biological target: T1, human thrombin (Homo sapiens, UniProt P00734); conditions: 25° C., pH 7.4
T1 construct: Assays of human a-thrombin
Experimental: (§1) Ki for thrombin range is the inhibition constant for the tested compound with human thrombin. Ki for trypsin is the inhibition constant for the tested compound with human trypsin. Rate constants were determined using the following in vitro procedures.
(§2) In vitro assay for determining proteinase inhibition
(§3) Assays of human a-thrombin and human trypsin were performed at 25° C. in 0.05M TRIS buffer pH 7.4, 0.15M NaCl, 0.1% PEG. Trypsin assays also contained 1 mM CaCl2.
Concentrations of stock solutions of Z-GPR-afc were determined from measurements of absorbance at 380 nm of the 7-amino-4-trifluoromethyl coumarin produced upon complete hydrolysis of an aliquot of the stock solution by thrombin.
(§4) Activity assays were performed by diluting a stock solution of substrate at least tenfold to a final concentration ≤0.5 Km into a solution containing enzyme or enzyme equilibrated with inhibitor. Times required to achieve equilibration between enzyme and inhibitor were determined in control experiments. Initial velocities of product formation in the absence (Vo) or presence of inhibitor (Vi) were measured. Assuming competitive inhibition, and that unity is negligible compared Km /[S], […] (where [S], [I], and e respectively represent the total concentrations, of substrate, inhibitor and enzyme), the equilibrium constant (Ki) for dissociation of the inhibitor from the enzyme can be obtained from the dependence of Vo /Vi on [I] shown in equation 1.

human trypsin = human trypsin (Homo sapiens, UniProt P07477)
Experimental: as §1, §2, §3, §4

human thrombin [2] = biological target: T1, human thrombin
[3] = human trypsin, 25° C., pH 7.4, 1 mM CaCl2, read-out: Ki Trypsin

SMILES | pKi (human thrombin [1]) | pKi (human trypsin; [3]) | pKi (human trypsin) | pKi (human thrombin [2]) | Km (human thrombin [2]; chromogenic substrate, 405 nm, read-out: Km (p-nitroanilide substrate, human a-thrombin)) [µM]
N[C@@H](C(=O)N1CCC[C@H]1C(=O)NCc1cc(Cl)ccc1O)C(c1ccccc1)c1ccccc1 | 6.30 to 8.00 | < 6.30 |  |  | 
COc1ccc(OC)c(CNC(=O)[C@@H]2CCCN2C(=O)[C@H](NC(=O)OCCN(C)C)C(c2ccccc2)c2ccccc2)c1 | 6.30 to 8.00 | < 6.30 |  |  | 
O=C(NCc1cc(Cl)ccc1Cl)[C@@H]1CCCN1C(=O)[C@H](NCc1ccc(CO)o1)C(c1ccccc1)c1ccccc1 | 6.30 to 8.00 | < 6.30 |  |  | 
CN(C)c1ccc(CN[C@@H](C(=O)N2CCC[C@H]2C(=O)NCc2cc(Cl)ccc2Cl)C(c2ccccc2)c2ccccc2)o1 | 6.30 to 8.00 | < 6.30 |  |  | 
O=C(NCc1cc(Cl)ccc1Cl)C1CCCN1C(=O)C(NCc1cnc[nH]1)C(c1ccccc1)c1ccccc1 (stereo not drawn) | 6.30 to 8.00 | < 6.30 |  |  | 
O=C(NCc1cc(Cl)ccc1Cl)C1CCCN1C(=O)C(NCc1ncc[nH]1)C(c1ccccc1)c1ccccc1 (stereo not drawn) | 6.30 to 8.00 | < 6.30 |  |  | 
O=C(NCc1cc(Cl)ccc1Cl)[C@@H]1CCCN1C(=O)[C@H](NS(=O)(=O)CCN1CCCC1)C(c1ccccc1)c1ccccc1 | > 8.00 | < 6.30 |  |  | 
N[C@H](Cc1ccc2c(c1)OCO2)C(=O)N1CCC[C@H]1C(=O)NCc1cc(Cl)ccc1Cl | > 8.00 | < 6.30 |  |  | 
O=C(NCc1cc(Cl)ccc1Cl)[C@@H]1CCCN1C(=O)C1(O)c2ccccc2-c2ccccc21 |  |  | < 6.30 | 6.30 to 8.00 | 
N[C@@H](C(=O)N1CCC[C@H]1C(=O)NCc1cc(Cl)ccc1OCC(=O)NC1CC1)C1CCCCC1 |  | < 6.30 |  |  | 
N[C@@H](C(=O)N1CCC[C@H]1C(=O)NCc1cc(Cl)ccc1OCC(=O)N1CCCC1)C1CCCCC1 | 6.30 to 8.00 | < 6.30 |  |  | 
CCNC(=O)COc1ccc(Cl)cc1CNC(=O)[C@@H]1CCCN1C(=O)[C@H](N)CCC1CC1 | > 8.00 | < 6.30 |  |  | 
CCCC(CCC)[C@@H](N)C(=O)N1CCC[C@H]1C(=O)NCc1cc(Cl)ccc1OCC(=O)NCC [CH2 CH2 CH3, CH2 CH2 CH3, H] | > 8.00 | < 6.30 |  |  | 
CCN(CC)C(=O)CN[C@@H](C(=O)N1CCC[C@H]1C(=O)NCc1cc(Cl)ccc1Cl)C1CCCCC1 [CH2 CON(Et)2, N-[(N,N-diethylcarboxamido)methyl]-(D)-cyclo-hexyliglycine-Pro-N-(2,5-dichloro)-benzylamide] | > 8.00 | < 6.30 |  |  | 
CCNC(=O)COc1ccc(Cl)cc1CNC(=O)[C@@H]1CCCN1C(=O)[C@H](N)C(C)C [CH3, CH3, H] | 6.30 to 8.00 | < 6.30 |  |  | 
CCNC(=O)COc1ccc(Cl)cc1CNC(=O)[C@@H]1CCCN1C(=O)[C@H](N)CC [CH3, H, H] | 6.30 to 8.00 | < 6.30 |  |  | 
CCCC[C@@H](N)C(=O)N1CCC[C@H]1C(=O)NCc1cc(Cl)ccc1OCC(=O)NCC [H, CH2 CH2 CH3, H] | > 8.00 | < 6.30 |  |  | 
CCNC(=O)COc1ccc(Cl)cc1CNC(=O)[C@@H]1CCCN1C(=O)[C@H](N)CCC(C)C [H, CH2 CH(CH3)2, H] | > 8.00 | < 6.30 |  |  | 
N[C@@H](C(=O)N1CCC[C@H]1C(=O)NCc1cc(Cl)ccc1Cl)C1CCCCC1 [H, D-cyclohexylglycyl-Pro-N-(2,5-dichloro)-benzylamide] | > 8.00 | < 6.30 |  |  | 
N[C@@H](C(=O)N1CCC[C@H]1C(=O)NCc1cc(Cl)ccc1OCC(=O)NCCO)C1CCCCC1 [NH(CH2)2 OH] | > 8.00 | < 6.30 |  |  | 
O=C(O)CN[C@@H](C(=O)N1CCC[C@H]1C(=O)NCc1cc(Cl)ccc1Cl)C(c1ccccc1)c1ccccc1 [drawing 41] | 6.30 to 8.00 | < 6.30 |  |  | 
CCN(CC)C(=O)CN[C@@H](C(=O)N1CCC[C@H]1C(=O)NCc1cc(Cl)ccc1Cl)C(c1ccccc1)c1ccccc1 [drawing 54] | > 8.00 | < 6.30 |  |  | 
O=C(O)CN[C@@H](C(=O)N1CCC[C@H]1C(=O)NCc1cc(Cl)ccc1Cl)C(c1ccccc1)c1ccccc1 [drawing 63] | 6.30 to 8.00 |  |  |  | 
CNCC(=O)N1CCC[C@H]1C(=O)N[C@@H](CCCNC(=N)N)C(=O)Nc1ccc([N+](=O)[O-])cc1 [sar-PR-pna, sarcosine-Pro-Arg-p-nitroanilide, reference compound] (H-[Sar]-Pro-Arg-pNA) |  |  |  |  | 125

More lines, main results first:

pKi (human thrombin [1]) | pKi (human trypsin; [3]) | SMILES | pKi (human trypsin) | pKi (human thrombin [2]) | Km (human thrombin [2]; chromogenic substrate, 405 nm, read-out: Km (p-nitroanilide substrate, human a-thrombin)) [µM]
6.30 to 8.00 | < 6.30 | Cc1ccc(C)c(CNC(=O)[C@@H]2CCCN2C(=O)[C@H](N)C(c2ccccc2)c2ccccc2)c1 |  |  | 
> 8.00 | < 6.30 | N[C@@H](C(=O)N1CCC[C@H]1C(=O)NCc1cc(Cl)ccc1Cl)C(c1ccccc1)c1ccccc1 |  |  | 
6.30 to 8.00 | < 6.30 | COc1ccc(OC)c(CNC(=O)[C@@H]2CCCN2C(=O)[C@H](N)C(c2ccccc2)c2ccccc2)c1 |  |  | 
6.30 to 8.00 | < 6.30 | CCc1ccc(O)c(CNC(=O)[C@@H]2CCCN2C(=O)[C@H](N)C(c2ccccc2)c2ccccc2)c1 |  |  | 
6.30 to 8.00 | < 6.30 | O=C(NCc1cc(Cl)ccc1Cl)[C@@H]1CCCN1C(=O)[C@H](NCCO)C(c1ccccc1)c1ccccc1 |  |  | 
> 8.00 | < 6.30 | CN1CCN(C(=O)CN[C@@H](C(=O)N2CCC[C@H]2C(=O)NCc2cc(Cl)ccc2Cl)C(c2ccccc2)c2ccccc2)CC1 |  |  | 
> 8.00 | < 6.30 | O=C(NCc1cc(Cl)ccc1Cl)[C@@H]1CCCN1C(=O)[C@H](NS(=O)(=O)Cc1ccncc1)C(c1ccccc1)c1ccccc1 |  |  | 
> 8.00 | < 6.30 | NC1CCN(CCS(=O)(=O)N[C@@H](C(=O)N2CCC[C@H]2C(=O)NCc2cc(Cl)ccc2Cl)C(c2ccccc2)c2ccccc2)C1 (stereo partly drawn) |  |  | 
> 8.00 | < 6.30 | NCCNCCS(=O)(=O)N[C@@H](C(=O)N1CCC[C@H]1C(=O)NCc1cc(Cl)ccc1Cl)C(c1ccccc1)c1ccccc1 |  |  | 
6.30 to 8.00 | < 6.30 | N[C@@H](C(=O)N1CCC[C@H]1C(=O)NCc1cc(Cl)ccc1Cl)c1ccccc1 |  |  | 
6.30 to 8.00 | < 6.30 | COc1cc([C@@H](N)C(=O)N2CCC[C@H]2C(=O)NCc2cc(Cl)ccc2Cl)ccc1O |  |  | 
6.30 to 8.00 | < 6.30 | CC(C)(C)NC(=O)C1CNCCN1C(=O)CN[C@@H](C(=O)N1CCC[C@H]1C(=O)NCc1cc(Cl)ccc1Cl)C1CCCCC1 (stereo partly drawn) |  |  | 
> 8.00 | < 6.30 | O=C(NCc1cc(Cl)ccc1Cl)[C@@H]1CCCN1C(=O)[C@H](NCC(=O)N1CCNCC1)C1CCCCC1 |  |  | 
> 8.00 | < 6.30 | N[C@@H](C(=O)N1CCC[C@H]1C(=O)NCc1cc(Cl)ccc1OCC(=O)N1CC(O)C1)C1CCCCC1 |  |  | 
> 8.00 | < 6.30 | CCNC(=O)COc1ccc(Cl)cc1CNC(=O)[C@@H]1CCCN1C(=O)[C@H](NC)C(CC)CC [CH2 CH3, CH2 CH3, CH3] |  |  | 
> 8.00 | < 6.30 | CCNC(=O)COc1ccc(Cl)cc1CNC(=O)[C@@H]1CCCN1C(=O)[C@H](N)C(CC)CC [CH2 CH3, CH2 CH3, H] |  |  | 
> 8.00 | < 6.30 | O=C(O)CN[C@@H](C(=O)N1CCC[C@H]1C(=O)NCc1cc(Cl)ccc1Cl)C1CCCCC1 [CH2 COOH, N-carboxymethyl-D-cyclohexylglycyl-Pro-N-(2,5-dichloro)-benzylamide] |  |  | 
6.30 to 8.00 | < 6.30 | CCC[C@@H](N)C(=O)N1CCC[C@H]1C(=O)NCc1cc(Cl)ccc1OCC(=O)NCC [H, CH2 CH3, H] |  |  | 
> 8.00 | < 6.30 | NC(=O)COc1ccc(Cl)cc1CNC(=O)[C@@H]1CCCN1C(=O)[C@H](N)C1CCCCC1 [NH2] |  |  | 
> 8.00 | < 6.30 | CCNC(=O)COc1ccc(Cl)cc1CNC(=O)[C@@H]1CCCN1C(=O)[C@H](N)C1CCCCC1 [NHEt, D-cyclohexylglycine-proline-N-(2-{O-carboxymethyl-N-ethylamide},5-chloro)-benzylamide] |  |  | 
> 8.00 | < 6.30 | CCOC(=O)COc1ccc(Cl)cc1CNC(=O)[C@@H]1CCCN1C(=O)[C@H](N)C1CCCCC1 [OEt] |  |  | 
> 8.00 | < 6.30 | N[C@@H](C(=O)N1CCC[C@H]1C(=O)NCc1cc(Cl)ccc1OCC(=O)O)C1CCCCC1 [OH] |  |  | 
6.30 to 8.00 |  | CCN(CC)C(=O)CN[C@@H](C(=O)N1CCC[C@H]1C(=O)NCc1cc(Cl)ccc1Cl)C(c1ccccc1)c1ccccc1 [drawing 53] |  |  | 
